Calls of active or inactive are those of the source.
Experiments:
Beta-galactosidase = Beta-galactosidase (Escherichia coli, UniProt Q8VNN2); experiment: Dose response counterscreen for EBI2 assay utilizing the enzyme, b-galactosidase.; assay type: functional
[1] = general mammalian cell viability loss – inhibitor set, cherry-pick, set 2, cytotoxicity control for miR-122 modulator project, dose response (AID 720697); assay type: functional, cell-based
[2] = biological target: T1, Heat shock factor protein 1 (Mus musculus, UniProt P38532); experiment: decrease of HSF1-responsive luciferase luminescence – cell-based, NIH3T3, dose retest, confirmation (AID 2382); assay type: functional;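 also: NIH3T3 fibroblasts with HSF1-driven luciferase reporter stressed by proteasome inhibitor MG132; luminescence from HSF1-driven luciferase expression after 8 hours of MG132 stress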
T1 sequence (P38532 whole entry): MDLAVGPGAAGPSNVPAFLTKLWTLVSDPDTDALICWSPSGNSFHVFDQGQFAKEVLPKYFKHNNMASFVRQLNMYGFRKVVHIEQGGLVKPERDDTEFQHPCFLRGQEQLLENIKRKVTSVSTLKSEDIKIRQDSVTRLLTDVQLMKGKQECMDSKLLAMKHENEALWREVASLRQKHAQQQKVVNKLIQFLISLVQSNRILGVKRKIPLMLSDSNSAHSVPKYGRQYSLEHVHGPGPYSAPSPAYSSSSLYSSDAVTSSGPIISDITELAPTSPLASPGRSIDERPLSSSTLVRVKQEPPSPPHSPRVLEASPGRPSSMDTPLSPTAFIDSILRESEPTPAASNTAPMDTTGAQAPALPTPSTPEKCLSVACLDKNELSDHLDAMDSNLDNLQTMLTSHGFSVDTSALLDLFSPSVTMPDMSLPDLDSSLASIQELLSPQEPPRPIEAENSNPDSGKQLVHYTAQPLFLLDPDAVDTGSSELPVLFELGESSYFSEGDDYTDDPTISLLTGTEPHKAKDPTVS

[3] = biological target: T2, Methionyl-tRNA synthetase, putative (Trypanosoma brucei brucei, UniProt Q38C91); assay type: functional, Trypanosoma brucei brucei strain 927/4 GUTat10.1
T2 sequence (Q38C91 whole entry): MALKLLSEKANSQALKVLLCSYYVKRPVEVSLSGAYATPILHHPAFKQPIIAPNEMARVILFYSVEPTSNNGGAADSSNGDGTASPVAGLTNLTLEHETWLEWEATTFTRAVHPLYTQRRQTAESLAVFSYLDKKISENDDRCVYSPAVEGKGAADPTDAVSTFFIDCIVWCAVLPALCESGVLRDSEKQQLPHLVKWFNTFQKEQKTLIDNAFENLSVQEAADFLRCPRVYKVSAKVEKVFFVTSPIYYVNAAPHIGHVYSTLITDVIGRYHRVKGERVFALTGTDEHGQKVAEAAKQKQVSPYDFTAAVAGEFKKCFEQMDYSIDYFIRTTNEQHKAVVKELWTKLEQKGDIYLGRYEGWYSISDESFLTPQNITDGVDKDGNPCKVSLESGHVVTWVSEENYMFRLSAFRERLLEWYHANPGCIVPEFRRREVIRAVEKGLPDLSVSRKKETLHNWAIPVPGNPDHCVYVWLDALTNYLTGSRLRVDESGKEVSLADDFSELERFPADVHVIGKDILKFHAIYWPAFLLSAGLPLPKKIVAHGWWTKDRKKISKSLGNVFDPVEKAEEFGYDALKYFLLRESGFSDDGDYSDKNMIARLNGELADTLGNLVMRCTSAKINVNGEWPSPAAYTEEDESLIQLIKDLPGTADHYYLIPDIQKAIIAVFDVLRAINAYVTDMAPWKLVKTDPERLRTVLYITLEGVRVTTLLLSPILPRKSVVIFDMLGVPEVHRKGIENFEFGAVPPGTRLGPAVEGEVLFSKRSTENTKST

[4] = biological target: T2, Methionyl-tRNA synthetase, putative; assay type: functional, Trypanosoma brucei brucei strain 927/4 GUTat10.1; remark: listed apart in the source
A549 = experiment: viability loss in A549 cells – cell-based, plate reader, cherry-pick samples, cytotoxicity control, dose response (AID 687028); assay type: functional; details: Homo sapiens
Vero = experiment: viability loss in Vero cells – cell-based, plate reader, cherry-pick samples, cytotoxicity control, dose response (AID 687020); assay type: functional; details: Chlorocebus sabaeus
[5] = biological target: Long-chain-fatty-acid--AMP ligase FadD28 (Mycobacterium tuberculosis, UniProt P9WQ59); experiment: Fluorescence polarization aasay to screen for inhibitors that compete for the binding of FadD28 to a bisubstrate Measured in Biochemical System Using Plate Reader - 2147-01_Inhibitor_Dose_CherryPick_Activity.; assay type: functional, Mycobacterium tuberculosis H37Rv
Long-chain-fatty-acid--AMP ligase FadD28, sequence (P9WQ59 whole entry): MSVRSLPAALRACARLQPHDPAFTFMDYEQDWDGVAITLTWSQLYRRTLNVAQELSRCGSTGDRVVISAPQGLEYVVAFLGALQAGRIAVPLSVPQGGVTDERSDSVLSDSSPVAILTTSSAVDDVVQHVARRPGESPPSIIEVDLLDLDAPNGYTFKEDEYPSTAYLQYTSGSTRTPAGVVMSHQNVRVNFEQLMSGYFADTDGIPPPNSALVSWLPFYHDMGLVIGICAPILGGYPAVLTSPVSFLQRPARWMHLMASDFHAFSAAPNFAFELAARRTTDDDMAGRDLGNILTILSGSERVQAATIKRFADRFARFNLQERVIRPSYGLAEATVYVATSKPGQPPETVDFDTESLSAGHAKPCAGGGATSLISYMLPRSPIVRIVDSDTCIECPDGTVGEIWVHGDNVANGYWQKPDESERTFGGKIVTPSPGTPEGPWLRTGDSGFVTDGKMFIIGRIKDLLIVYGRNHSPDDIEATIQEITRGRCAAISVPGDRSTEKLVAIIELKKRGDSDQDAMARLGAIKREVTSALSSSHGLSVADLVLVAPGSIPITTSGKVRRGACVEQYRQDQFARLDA

Nonstructural protein 1 = Nonstructural protein 1 (Influenza A virus, UniProt Q194T2); assay type: functional, Influenza A virus (A/California/07/2009(H1N1))
Nonstructural protein 1, sequence (Q194T2 whole entry): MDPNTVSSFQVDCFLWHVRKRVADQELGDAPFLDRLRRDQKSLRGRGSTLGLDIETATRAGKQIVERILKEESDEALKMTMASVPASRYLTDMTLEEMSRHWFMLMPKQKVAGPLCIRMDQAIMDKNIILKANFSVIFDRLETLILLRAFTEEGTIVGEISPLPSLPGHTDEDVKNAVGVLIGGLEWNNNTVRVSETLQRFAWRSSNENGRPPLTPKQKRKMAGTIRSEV

Aminopeptidase N = biological target: T3, Aminopeptidase N (Plasmodium falciparum FcB1/Columbia, UniProt O96935); experiment: malaria alanyl aminopeptidase activity blockers – biochemical, fluorogenic H-Leu-NHMec substrate, 1536-well (AID 1445); parameters: species or system Plasmodium falciparum 3D7, 3D7
T3 sequence (O96935 whole entry): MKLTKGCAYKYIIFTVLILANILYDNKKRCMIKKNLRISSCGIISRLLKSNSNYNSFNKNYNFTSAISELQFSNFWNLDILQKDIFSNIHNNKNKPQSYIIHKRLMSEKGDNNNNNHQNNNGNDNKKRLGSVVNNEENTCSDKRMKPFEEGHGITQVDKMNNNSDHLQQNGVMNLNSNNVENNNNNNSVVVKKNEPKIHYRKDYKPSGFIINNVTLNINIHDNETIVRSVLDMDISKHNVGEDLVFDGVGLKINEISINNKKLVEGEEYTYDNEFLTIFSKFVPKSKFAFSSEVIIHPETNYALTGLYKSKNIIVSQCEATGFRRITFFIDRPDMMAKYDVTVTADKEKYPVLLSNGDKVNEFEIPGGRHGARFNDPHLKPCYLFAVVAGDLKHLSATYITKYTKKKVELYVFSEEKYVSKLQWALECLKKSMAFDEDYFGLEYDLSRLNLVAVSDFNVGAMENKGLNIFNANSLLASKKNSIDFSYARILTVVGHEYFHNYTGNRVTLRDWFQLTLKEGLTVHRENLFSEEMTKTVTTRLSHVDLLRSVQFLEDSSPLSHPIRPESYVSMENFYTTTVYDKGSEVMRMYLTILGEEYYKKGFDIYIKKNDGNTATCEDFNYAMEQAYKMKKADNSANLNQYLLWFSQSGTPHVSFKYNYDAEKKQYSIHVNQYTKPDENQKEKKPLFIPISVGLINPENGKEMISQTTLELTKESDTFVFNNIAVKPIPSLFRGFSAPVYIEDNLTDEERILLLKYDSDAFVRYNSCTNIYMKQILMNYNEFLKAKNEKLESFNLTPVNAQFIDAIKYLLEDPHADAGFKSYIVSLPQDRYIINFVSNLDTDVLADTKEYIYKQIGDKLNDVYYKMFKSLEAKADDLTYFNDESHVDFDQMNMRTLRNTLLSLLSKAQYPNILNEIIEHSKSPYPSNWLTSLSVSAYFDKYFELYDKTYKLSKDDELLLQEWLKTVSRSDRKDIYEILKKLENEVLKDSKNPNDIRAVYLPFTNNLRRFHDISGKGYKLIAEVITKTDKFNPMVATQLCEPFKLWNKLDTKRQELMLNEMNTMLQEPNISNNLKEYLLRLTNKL

[6] = HGIII-sPLA2 enzyme inhibition potency – biochemical, QFRET, IC50, dose response (AID 743457);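 also: green fluorescence rise as the enzyme cleaves BODIPY PC-A2 in liposomes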
[7] = biological target: Matrix metalloproteinase-14 (Homo sapiens, UniProt P50281); experiment: Dose Response confirmation of uHTS hits for a small molecule inhibitors of MT1-MMP activation in a fluorescence assay set 1.; assay type: functional

Beta-galactosidase, sequence (Q8VNN2 whole entry): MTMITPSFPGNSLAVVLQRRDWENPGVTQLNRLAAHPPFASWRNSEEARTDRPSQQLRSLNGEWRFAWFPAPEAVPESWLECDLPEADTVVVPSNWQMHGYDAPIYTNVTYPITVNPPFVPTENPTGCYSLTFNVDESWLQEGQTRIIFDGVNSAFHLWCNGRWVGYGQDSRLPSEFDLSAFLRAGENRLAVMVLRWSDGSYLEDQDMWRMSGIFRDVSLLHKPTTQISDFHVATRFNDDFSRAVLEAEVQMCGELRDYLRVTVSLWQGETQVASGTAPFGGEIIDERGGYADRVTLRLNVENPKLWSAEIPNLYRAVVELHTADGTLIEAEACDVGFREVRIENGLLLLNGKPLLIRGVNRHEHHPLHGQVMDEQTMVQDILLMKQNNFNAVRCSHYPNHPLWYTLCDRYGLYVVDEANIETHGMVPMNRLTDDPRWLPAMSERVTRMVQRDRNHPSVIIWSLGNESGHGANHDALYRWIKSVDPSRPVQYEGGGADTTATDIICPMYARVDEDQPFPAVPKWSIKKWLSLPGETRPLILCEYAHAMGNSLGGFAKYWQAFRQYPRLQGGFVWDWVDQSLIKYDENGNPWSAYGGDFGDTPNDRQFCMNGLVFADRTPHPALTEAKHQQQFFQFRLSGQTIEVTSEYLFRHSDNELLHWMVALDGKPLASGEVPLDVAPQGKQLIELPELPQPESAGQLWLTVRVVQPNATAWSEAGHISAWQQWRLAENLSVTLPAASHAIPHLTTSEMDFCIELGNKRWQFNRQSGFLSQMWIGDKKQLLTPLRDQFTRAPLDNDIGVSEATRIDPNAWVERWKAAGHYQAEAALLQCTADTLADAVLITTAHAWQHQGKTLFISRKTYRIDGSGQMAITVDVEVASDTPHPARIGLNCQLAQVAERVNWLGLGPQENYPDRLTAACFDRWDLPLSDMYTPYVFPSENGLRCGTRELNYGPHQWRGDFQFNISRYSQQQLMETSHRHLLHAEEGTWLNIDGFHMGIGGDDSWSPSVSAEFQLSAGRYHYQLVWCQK

CCOC(=O)C1CCN(C(=O)c2cc3c(s2)-c2ccccc2OC3)CC1
IC50 (Beta-galactosidase): > 80 µM (inactive)

CCN(CC)CCOc1cccc(C(C)C)c1
AC50 [1]: 6.91 µM (active)

COc1ccc(NC(=S)N2CCC(c3nc4ccc(Cl)cc4[nH]3)CC2)c(OC)c1
EC50 [2]: > 195 µM (not active) | IC50 [3]: 26.1 µM (inactive) | IC50 [4]: 53.5 µM (inactive)

O=C(OCc1cn([C@H]2CN(C(=O)C3CCCCC3)[C@@H](c3ccccc3)C[C@@H]2O)nn1)c1ccccc1
AC50 (A549): 16.1 µM (active) | AC50 (Vero): 20.2 µM (active)

CCOc1ccc(N2C(=O)/C(=C\NNc3nnc(C)c(O)n3)c3ccccc3C2=O)cc1
AC50 [5]: 64.9 µM (active) | IC50 (Nonstructural protein 1): 5.02 µM (active) | IC50 (Aminopeptidase N): 20.9 µM (active) | EC50 [2]: > 195 µM (not active)

CC1(C)CCCN(C(=O)c2ccc3c(c2NCCO)C(=O)c2ccccc2C3=O)C1
IC50 (Nonstructural protein 1): 15.2 µM (active) | IC50 [6]: > 122 µM (inactive) | IC50 [7]: 17.2 µM (active)
